{"source": "patent US20230398087A1", "about": "“APPLICATION OF BZP IN TREATMENT OF ISCHEMIC CARDIOVASCULAR AND CEREBRAL VASCULAR DISEASES” (priority 2020, published 2023)", "key": {"[1]": {"system": "salt-sensitive rats", "assay": "Salt-sensitive rats", "format": "in vivo"}, "[2]": {"assay": "Long-term toxicity test, 13 consecutive weeks, rats", "format": "in vivo", "experimental": "These gradually returned to normal within 1 hour. […] The nervous system and respiratory system reactions in the long-term toxicity test were transient reactions, and the slight anemia and damage to the liver also recovered within the observation period."}, "[3]": {"assay": "Phase I safety and tolerability in healthy subjects (BZP1601 single dose, BZP1702 multiple doses)", "format": "in vivo, human", "text": "Analysis population: same as BZP1601 trial. All 36 subjects enrolled were included in the safety analysis data set, 30 subjects in the BZP group and 6 subjects in the placebo group.\nThe AE related to the study drug occurred from a few minutes to the 9th day after administration, and the symptoms turned to disappear without any clinical intervention."}, "[4]": {"system": "acute global cerebral ischemia in rats", "assay": "Acute global cerebral ischemia in rats, volume of cerebral infarction (nuclear magnetic resonance)", "format": "in vivo", "text": "2.7 The Protective Effect of BZP on Acute Global Cerebral Ischemia in Rats: […]"}, "[5]": {"system": "Bax/Bcl-2-cytochrome C-Caspase-3 mitochondrial apoptosis pathway; PI3K-p-Akt survival signaling pathway", "assay": "Neuronal apoptosis after focal cerebral ischemia-reperfusion injury", "design": "species or system rats", "settings": "rat, in vivo", "text": "2.3 The Protective Effect of BZP on Neuronal Apoptosis after Focal Cerebral Ischemia-Reperfusion Injury in Rats: […]"}, "[6]": {"system": "acute ischemic stroke patients", "assay": "BZP1703 Phase II clinical trial in acute ischemic stroke", "format": "in vivo, human", "settings": "preliminary results", "text": "The BZP1703 clinical trial is a multi-center, randomized, double-blind, placebo-controlled Phase II clinical trial. The purpose of the trial is to evaluate the safety and feasibility of different doses of BZP for injection compared with placebo in the treatment of acute ischemic stroke, and to preliminarily explore its effectiveness, so as to provide a basis for the design of Phase III clinical trial.\nThe trial plans to enroll 375 acute ischemic stroke patients aged 45 to 75 in China. […]\nThe primary safety endpoint of the BZP1703 trial is SAE, and the primary efficacy endpoint is the difference between the NIHSS score on day 14 and the baseline NIHSS score. Secondary safety endpoints include all-cause death, fatal bleeding and symptomatic intracranial hemorrhage, hemorrhagic transformation of cerebral infarction detected by head magnetic resonance imaging (MRI) on day 14, various adverse events; other bleeding events, AE, AEs of special interest (seizures, bradycardia, atrioventricular block, coagulation abnormalities, proteinuria, leukopenia), number and incidence of patients with new vascular events (ischemic stroke/hemorrhagic stroke/myocardial infarction/vascular death), vital signs, physical examination, laboratory tests (blood routine, blood biochemistry, urine routine, stool routine, coagulation function, etc.), 12-lead electrocardiogram (ECG) and other abnormalities. […]"}, "[7]": {"system": "platelet aggregation", "assay": "Ex vivo platelet aggregation", "format": "cell-based"}, "[8]": {"assay": "Tissue distribution, metabolism and excretion in animals", "format": "in vivo", "text": "BNBP-OH is the main metabolite of BNBP (via NADPH coenzyme/CYP450)."}, "[9]": {"assay": "BZP1702 Phase I multiple doses pharmacokinetics in healthy subjects", "settings": "for half-life: both, human, plasma", "quoted_text": "Analysis population: same as BZP1601 trial. The study contained 4 BZP groups (50 mg, 100 mg, 200 mg respectively) and a placebo group. Each group enrolled 10, 10, 10 and 6 subjects, respectively, a total of 36 subjects. 1 subject in the 50 mg group took a drug two days before the administration, and the paracetamol, caffeine, artificial cow-bezoar and chlorphenamine maleate may affect the metabolism of the drug, and the subject dropped out of the group after collecting a 24-hour blood sample on the second day of administration, so the pharmacokinetic parameters could not be fully calculated, and thus this subject was not included in the pharmacokinetic analysis data set, and the other 29 subjects who were given BZP were all included in the pharmacokinetic analysis data set.\n(§1) The blood samples were collected at 0 minutes, 20 minutes, 40 minutes, minutes (end of infusion), 1.25 hours, 1.5 hours, 2 hours, 2.5 hours, 3 hours, 4 hours, 6 hours, 8 hours, 12 hours, 16 hours, 24 hours, 36 hours, and 48 hours after administration in BZP1601 trial, while in the BZP1702 trial, on the first day of administration, the blood samples were collected only by 24 hours after administration."}, "[10]": {"assay": "BZP1601 Phase I single dose pharmacokinetics in healthy subjects", "quoted_text": "Analysis population: Any subjects who have received BZP and undergone biological sample collections and can undergo pharmacokinetic analysis will be included in the pharmacokinetic analysis (excluding the 12.5 mg of pre-study group). The study analysis included 6 BPZ groups (respectively 25 mg, 50 mg, 100 mg, 200 mg, 300 mg, and 400 mg) and the placebo group, and the number of subjects enrolled in each group was 8, 8, 8, 8, 8, 8, 12 subjects, a total of 60 subjects. All 60 subjects enrolled in the formal study were included in the pharmacokinetic analysis set.\nas §1"}, "[11]": {"system": "cardiovascular system", "assay": "Safety pharmacology, cardiovascular system", "format": "in vivo, dogs", "experimental": "These changes all recovered within 0.5 hours after administration. The dose range of […] BZP has no effect on the II-lead ECG."}, "[12]": {"settings": "single intravenous infusion, 25-400 mg"}}, "note": "Where “and” joins values, the source holds several entries; their conditions need not be identical. Equal values may be shown once. Entries after “also recorded” stand apart in the source; their conditions may differ."}
{"smiles": "CCCCC(O)c1ccc(Br)cc1C(=O)[O-].[Na+]", "note": "(stereo not drawn) [BZP, sodium 5-bromo-2-(α-hydroxypentyl)benzoate]", "values": [{"measurement": "blood pressure of salt-sensitive rats", "setting": "[1]; 12 mg/kg, 21 days after administration", "value": "significantly reduce the blood pressure"}, {"measurement": "neurobehavior of salt-sensitive rats", "setting": "[1]; BZP 3, 12 and 24 mg/kg, dose-dependent", "value": "improve the neurobehavior"}, {"measurement": "time to return to normal", "setting": "[2]; 150 mg/kg", "value": "≤ 1", "unit": "h"}, {"measurement": "clinical signs at the end of each administration", "setting": "[2]; 150 mg/kg intravenous once a day, 13 weeks", "value": "shortness of breath, prone position, occasional salivation, and disappearance of righting reflex"}, {"measurement": "hematology, blood biochemistry, eye examination and urine routine", "setting": "[2]; 13 weeks", "value": "no obvious abnormalities"}, {"measurement": "NOAEL at 13 weeks", "setting": "[2]; rat, in vivo, long-term toxicity test, read-out: NOAEL dose", "value": 50, "unit": "mg/kg"}, {"measurement": "incidence of AE with dose increase", "setting": "[3]; both Phase I trials", "value": "does not increase with the dose increase; also recorded: did not increase with dose increase"}, {"measurement": "overall safety and tolerability in healthy subjects", "setting": "[3]; both Phase I trials", "value": "safe and well tolerated"}, {"measurement": "proportion of AE, BZP groups compared with the placebo group", "setting": "[3]; both Phase I trials", "value": "no statistical difference"}, {"measurement": "death, SAE, AE leading to drop out, other important AE", "setting": "[3]; both clinical trials", "value": "no death, SAE, AE leading to drop out, or other important AE"}, {"measurement": "dose-limiting toxicity (DLT)", "setting": "[3]; both clinical trials", "value": "No dose-limiting toxicity (DLT) occurred"}, {"measurement": "AE of more than mild severity", "setting": "[3]; multiple dose trial, 100 mg group, AE of others mild", "value": "one case of moderate hypotension"}, {"measurement": "AE judged by the investigator to be related to study drug, multiple doses", "setting": "[3]; multiple doses, dose group per AE", "value": "administration site pain; also recorded: hypotension; also recorded: hypokalemia; also recorded: decreased diastolic blood pressure"}, {"measurement": "safety and tolerance", "setting": "[3]; multiple intravenous infusions, 50 to 200 mg", "value": "good safety and tolerance"}, {"measurement": "AE judged by the investigator to be related to study drug, single dose", "setting": "[3]; single dose, dose group per AE", "value": "coagulopathy; also recorded: mild bradycardia; also recorded: decreased white blood cell counts; also recorded: decreased neutrophil cell count/percentage; also recorded: first-degree atrioventricular block; also recorded: proteinuria"}, {"measurement": "safety and tolerance", "setting": "[3]; [12]", "value": "good safety and tolerance"}, {"measurement": "reduction of volume of cerebral infarction compared with Br-NBP group and NBP-K group", "setting": "[4]; 12 and 24 mg/kg of BZP (P<0.01)", "value": "better than those in Br-NBP group and NBP-K group"}, {"measurement": "volume of cerebral infarction", "setting": "[4]; BZP 0.75, 3, 12 and 24 mg/kg, Br-NBP 10.5 mg/kg, NBP-K 9.6 mg/kg, vs model group", "value": "significantly reduce"}, {"measurement": "Bax/Bcl-2-cytochrome C-Caspase-3 mitochondrial apoptosis pathway", "setting": "[5]", "value": "inhibiting"}, {"measurement": "PI3K-p-Akt survival signaling pathway", "setting": "[5]", "value": "up-regulating"}, {"measurement": "loss of nerve cells and apoptosis rate", "setting": "[5]", "value": "reduce the loss of nerve cells and reduce the apoptosis rate"}, {"measurement": "effectiveness, single dose of 200 mg compared with 100 mg", "setting": "[6]; acute ischemic stroke patients", "value": "significantly more effective than a single dose of 100 mg"}, {"measurement": "effectiveness, 200 mg twice daily compared with 100 mg twice daily", "setting": "[6]; intravenous infusion for 14 days", "value": "significantly more effective than the dosage regimen of a single dose of 100 mg twice daily"}, {"measurement": "inhibition of ADP-induced platelet aggregation", "setting": "[7]; ADP-induced", "value": "no inhibitory effects"}, {"measurement": "IC50", "setting": "[7]; Platelet, AA-induced", "value": 12, "unit": "µM"}, {"measurement": "inhibition of thrombin-induced platelet aggregation", "setting": "[7]; thrombin-induced", "value": "no inhibitory effects"}, {"measurement": "tissue distribution of BZP", "setting": "[8]; at 110 minutes of administration", "value": "the fat content was the highest"}, {"measurement": "detectability in the brain", "setting": "[8]; eliminated quickly", "value": "cannot be detected after 50 minutes"}, {"measurement": "concentration in the brain", "setting": "[8]; in vivo", "value": "relatively low"}, {"measurement": "conversion of BZP in vivo", "setting": "[8]; not via NADPH coenzyme/CYP450", "value": "rapidly converted to BNBP"}, {"measurement": "ability of tissues to transform BZP in vitro", "setting": "[8]; spleen has the lowest ability", "value": "liver tissue has the strongest ability to transform BZP in vitro"}, {"measurement": "tissue distribution of BZP", "setting": "[8]; within 50 minutes of administration", "value": "higher in the lung tissue"}, {"measurement": "accumulation after multiple intravenous infusions", "setting": "[9]; 7 days", "value": "no obvious drug accumulation; also recorded: no significant drug accumulation; also recorded: There was no significant"}, {"measurement": "metabolites other than BNBP", "setting": "[9]; BZP1702", "value": "No significant metabolites other than BNBP were found"}, {"measurement": "accumulation ratio", "setting": "[9]; after 7 days of continuous administration", "value": "1.10-1.18"}, {"measurement": "half-life", "setting": "[9]; intravenous", "value": "5.34 to 5.57", "unit": "h"}, {"measurement": "half-life", "setting": "[9]; iv", "value": "11.1 to 13.3", "unit": "h"}, {"measurement": "difference in AUC0-t and Cmax between subjects of different genders", "setting": "[9]; multiple doses", "value": "not significantly different and 7 days. There was no"}, {"measurement": "mean ratio range between genders, AUC0-t", "setting": "[9]; multiple doses", "value": "0.797-1.01"}, {"measurement": "mean ratio range between genders, Cmax", "setting": "[9]; multiple doses", "value": "0.799-1.01"}, {"measurement": "day on which blood drug level reached steady state", "setting": "[9]; multiple intravenous infusions of BZP, 50-200 mg", "value": "steady state on the 5th day; also recorded: steady state on the fifth"}, {"measurement": "relationship of AUC0-t and Cmax in plasma with the dose", "setting": "[9]; multiple intravenous infusions, 50-200 mg, first and steady-state administration", "value": "linearly related to the dose; also recorded: linear relationship with the dose"}, {"measurement": "debrominated metabolites", "setting": "[10]; 200 mg group", "value": "no debrominated metabolites were found"}, {"measurement": "metabolites other than BNBP", "setting": "[10]; BZP1601", "value": "did not find other meaningful metabolites except BNBP"}, {"measurement": "Tmax / time of peak blood drug level", "setting": "[10]; BZP1601, median Tmax similar in each dose group", "value": "basically reached the peak blood drug level after the end of administration"}, {"measurement": "half-life", "setting": "[10]; both, human, plasma, iv", "value": "~8", "unit": "h"}, {"measurement": "difference in AUC0-t and Cmax between subjects of different genders", "setting": "[10]; single dose 25-400 mg", "value": "not significantly different; also recorded: There was no significant"}, {"measurement": "cumulative urine excretion rate across dose groups", "setting": "[10]; single dose, each dose group", "value": "basically the same"}, {"measurement": "relationship of AUC0-t and Cmax in plasma with the dose", "setting": "[10]; [12]", "value": "linearly related to the dose"}, {"measurement": "time to recovery of blood pressure changes after administration", "setting": "[11]; 50 mg/kg intravenous", "value": "≤ 0.5", "unit": "h"}, {"measurement": "systolic blood pressure, diastolic blood pressure and mean arterial pressure", "setting": "[11]; 0.25 hours after intravenous injection of 50 mg/kg", "value": "small transient increase"}, {"measurement": "effect on the II-lead ECG", "setting": "[11]; dose range of 5-50 mg", "value": "no effect"}]}
